Experimental data taken from the supplement of paper PMC10307832.

How the values were obtained:
Experiment in all cases: relative viability (nuclei count vs DMSO), 5 days (fraction); higher = more cells survive
Quizartinib + Navitoclax = compound: CC(C)(C)c1cc(NC(=O)Nc2ccc(-c3cn4c(n3)sc3cc(OCCN5CCOCC5)ccc34)cc2)no1 [Quizartinib] + CC1(C)CCC(c2ccc(Cl)cc2)=C(CN2CCN(c3ccc(C(=O)NS(=O)(=O)c4ccc(N[C@H](CCN5CCOCC5)CSc5ccccc5)c(S(=O)(=O)C(F)(F)F)c4)cc3)CC2)C1 [Navitoclax] (partner 0.5 µM)
Summary of the method: (§1)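 After 5 days of treatment, lung cancer cells in 1536-well plates were fixed and stained in a single step (final 0.05% Triton X-100, 1% formaldehyde, 1 ug/ml Hoechst) and their nuclei counted on 4× images. Treatment had been applied by pin tool the day after seeding as one drug alone or as a fixed anchor-drug dose with five library-drug doses (not always all listed) in √10 steps. Relative viability is the nuclei count of treated wells divided by that of vehicle wells, and values are medians of duplicate plates.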

Quizartinib + Lapatinib = compound: CC(C)(C)c1cc(NC(=O)Nc2ccc(-c3cn4c(n3)sc3cc(OCCN5CCOCC5)ccc34)cc2)no1 [Quizartinib] + CS(=O)(=O)CCNCc1ccc(-c2ccc3ncnc(Nc4ccc(OCc5cccc(F)c5)c(Cl)c4)c3c2)o1 [Lapatinib] (partner 2 µM)
Summary of the method: as §1

YM155 + Luminespib = compound: COCC[n+]1c2c(n(Cc3cnccn3)c1C)C(=O)c1ccccc1C2=O [YM155] + CCNC(=O)c1noc(-c2cc(C(C)C)c(O)cc2O)c1-c1ccc(CN2CCOCC2)cc1 [Luminespib] (partner 0.01 µM)
Summary of the method: as §1

YM155 + Dasatinib = compound: COCC[n+]1c2c(n(Cc3cnccn3)c1C)C(=O)c1ccccc1C2=O [YM155] + Cc1nc(Nc2ncc(C(=O)Nc3c(C)cccc3Cl)s2)cc(N2CCN(CCO)CC2)n1 [Dasatinib] (partner 0.075 µM)
Summary of the method: as §1

Cell Line | relative viability (Quizartinib + Navitoclax; first compound 0.001 µM) | relative viability (Quizartinib + Navitoclax; first compound 0.003162 µM) | relative viability (Quizartinib + Navitoclax; first compound 0.01 µM) | relative viability (Quizartinib + Navitoclax; first compound 0.03162 µM) | relative viability (Quizartinib + Navitoclax; first compound 0.1 µM) | relative viability (Quizartinib + Lapatinib; first compound 0.001 µM) | relative viability (Quizartinib + Lapatinib; first compound 0.003162 µM) | relative viability (Quizartinib + Lapatinib; first compound 0.01 µM) | relative viability (Quizartinib + Lapatinib; first compound 0.03162 µM) | relative viability (Quizartinib + Lapatinib; first compound 0.1 µM) | relative viability (YM155 + Luminespib; first compound 0.002 µM) | relative viability (YM155 + Luminespib; first compound 0.006325 µM) | relative viability (YM155 + Luminespib; first compound 0.02 µM) | relative viability (YM155 + Luminespib; first compound 0.06325 µM) | relative viability (YM155 + Dasatinib; first compound 0.002 µM) | relative viability (YM155 + Dasatinib; first compound 0.006325 µM) | relative viability (YM155 + Dasatinib; first compound 0.02 µM) | relative viability (YM155 + Dasatinib; first compound 0.06325 µM)
201T | 1.24 | 1.21 | 1.25 | 1.24 | 1.25 | 1.09 | 1.04 | 1.07 | 1.06 | 1.05 | 1.05 | 1.06 | 1.04 | 1.09 | 0.562 | 0.616 | 0.558 | 0.609
A549 | 1.26 | 1.11 | 1.25 | – | 1.13 | 0.919 | 0.912 | 0.998 | 0.59 | 0.99 | – | – | – | – | – | – | – | –
A-427 | 0.94 | 0.881 | 0.869 | 0.906 | 0.95 | 0.714 | 0.938 | 1.04 | 0.998 | 0.986 | 0.895 | 0.965 | 0.85 | 0.441 | 0.688 | 0.734 | 0.839 | 0.818
ABC-1 | – | – | – | – | – | 1.11 | – | 1.17 | 1.02 | 1.29 | 0.439 | 0.386 | 0.169 | 0.256 | 0.48 | 0.374 | 0.197 | 0.26
BEN | 0.0726 | 0.0683 | 0.107 | 0.051 | 0.0586 | 0.473 | 0.661 | 0.579 | 0.667 | 0.747 | 0.33 | 0.728 | 0.617 | 0.417 | 0.331 | 0.269 | 0.36 | 0.348
CAL-12T | 1.15 | 1.1 | 1.33 | 1.24 | 1.32 | 0.587 | 0.716 | 0.667 | 0.687 | 0.795 | 0.362 | 0.766 | 0.414 | 0.183 | 0.255 | 0.615 | 0.602 | 0.393
COR-L23 | 1.01 | 0.968 | 1.02 | 0.875 | 1.03 | 1.03 | 0.856 | 1.14 | 0.613 | 0.928 | 0.562 | 0.378 | 0.16 | 0.115 | 0.503 | 0.463 | 0.367 | 0.221
COR-L 105 | 0.536 | 0.71 | 0.907 | 0.651 | 0.729 | 0.362 | 0.388 | 0.376 | 0.409 | 0.352 | 0.813 | 0.641 | 0.57 | 0.529 | 0.284 | 0.333 | 0.312 | 0.283
Calu-6 | 0.749 | 0.877 | 0.923 | 0.701 | 0.759 | 1.02 | 0.986 | 1.15 | 0.815 | 1.09 | – | – | – | – | – | – | – | –
ChaGo-K-1 | 0.439 | 1.02 | 1.02 | – | 1.52 | – | – | – | – | – | 0.651 | 0.509 | 0.715 | 0.714 | 0.463 | 0.503 | 0.582 | 0.629
EBC-1 | 0.411 | 0.436 | 0.524 | 0.479 | 0.527 | 0.23 | 0.209 | 0.202 | 0.207 | 0.197 | – | – | – | – | – | – | – | –
EKVX | 0.953 | 0.88 | 0.901 | 0.978 | 0.992 | 0.188 | 0.223 | 0.204 | 0.202 | 0.407 | 0.847 | 0.855 | 0.888 | 0.724 | 0.647 | 0.539 | 0.491 | 0.62
EMC-BAC-2 | 1.13 | 1.14 | 1.31 | 1.18 | 1.19 | 0.809 | 0.94 | 0.823 | 0.671 | 0.946 | 1.19 | 1.11 | 1.12 | 0.982 | 0.327 | 0.355 | 0.325 | 0.338
EPLC-272H | 1.06 | 0.964 | 1.15 | 1.18 | 1.05 | 0.681 | 1.07 | 0.834 | 0.923 | 1.34 | 0.378 | 0.327 | 0.186 | 0.24 | 0.358 | 0.371 | 0.396 | 0.365
H3255 | 0.523 | 0.442 | 0.531 | 0.661 | 0.468 | 0.264 | 0.238 | 0.212 | 0.28 | 0.241 | 0.752 | 0.949 | 0.948 | 1.02 | 0.379 | 0.339 | 0.534 | 0.405
HARA | 0.783 | 1.14 | 1.12 | 1.14 | 1.16 | 0.748 | 0.551 | 0.827 | 1.08 | 0.736 | 0.683 | 0.906 | 0.95 | 0.686 | 0.161 | 0.278 | 0.298 | 0.292
HCC-15 | 0.756 | 0.652 | 0.665 | 0.689 | 0.724 | 0.652 | 0.795 | 0.859 | 0.791 | 0.767 | 0.361 | 0.369 | 0.311 | 0.161 | 0.663 | 0.56 | 0.593 | 0.507
HCC-44 | 0.891 | 0.952 | 1.04 | 0.955 | 0.817 | 0.776 | 1.02 | 0.991 | 1.09 | 0.938 | 1.04 | 1.05 | 0.92 | 0.219 | – | – | – | –
HCC-78 | 0.813 | 0.868 | 0.766 | 0.598 | 0.842 | 0.869 | 0.901 | 0.576 | 0.702 | 0.703 | – | – | – | – | 0.313 | 0.487 | 0.477 | 0.47
HCC-366 | 0.799 | 1.01 | 0.957 | 1.06 | 0.903 | 0.931 | 0.992 | 1.06 | 0.897 | 1 | – | – | – | – | 0.578 | 0.653 | 0.685 | 0.581
